Reference: US20240091303A1, “BIOMARKER-BASED TREATMENT OF FOCAL SEGMENTAL GLOMERULOSCLEROSIS AND DIABETIC KIDNEY DISEASE” (Goldfinch Bio, Inc., priority 2019, published 2024)

Legend:
[1] = system: DOCA-salt hypertensive rats; assay: Effects of cyclosporine A and tacrolimus in DOCA-salt hypertensive rats (albuminuria); assay type: in vivo, Sprague Dawley rats; set-up: urinary albumin excretion: dose or concentration left out as unconfirmed
Description: The DOCA-salt hypertensive rat model is a well-established model of mineralocorticoid hypertension with renal dysfunction leading to an FSGS phenotype, characterized by increased levels of urinary protein and albumin excretion. [Schenk et al., “The pathogenesis of DOCA-salt hypertension,” J. Pharmacol. Toxicol.
Six to seven weeks old Sprague Dawley rats were unilaterally nephrectomized; after one-week recovery, rats were implanted with a DOCA pellet (45 mg) and provided tap water containing 0.9% NaCl and 0.2% KCl (Day 1) for a 3 weeks treatment. […] Sham animals, implanted with a silicone-water pellet, were given tap water and received administration of the vehicle. Proteinuria and albuminuria were recorded every week, and body weight was recorded daily.

[2] = system: DOCA-salt hypertensive rats; assay: Effects of Compound 3 in DOCA-salt hypertensive rats (albuminuria), eplerenone control; assay type: in vivo, Sprague Dawley rats
Description: The aim of this study was to evaluate the effects of the TRCPS inhibitor, Compound 3, to attenuate the development and/or progression of albuminuria in deoxycorticosterone acetate (DOCA)-salt hypertensive rats.
Six to seven weeks old Sprague Dawley rats were unilaterally nephrectomized; after one-week recovery, rats were implanted with a DOCA pellet (45 mg) and provided tap water containing 0.9% NaCl and 0.2% KCl (Day 1) for a 4 weeks treatment. On Day 1, DOCA-salt rats received one daily dose of Compound 3 administered by oral gavage at 30 mg/kg for 4 weeks; control animals for DOCA treatment were administered vehicle or the mineralocorticoid receptor antagonist (MCRA) eplerenone by twice-daily oral gavage at 50 mg/kg. Sham animals, implanted with a silicone-water pellet, were given tap water and received SC administration of the vehicle. Body weight was recorded daily and proteinuria, albuminuria and arterial blood pressure were recorded every week.

[3] = system: DOCA-salt hypertensive rats; assay: Effects of Compound 1 in DOCA-salt hypertensive rats (albuminuria); assay type: in vivo, Sprague Dawley rats; settings: for urinary albumin excretion: week 2 to week 4, FIG. 7
Text: The aim of this study was to evaluate the effects of the TRCPS inhibitor, Compound 1, to attenuate the development and/or progression of albuminuria in deoxycorticosterone acetate (DOCA)-salt hypertensive rats.
(§1) The DOCA-salt hypertensive rat model is a well-established model of mineralocorticoid hypertension with renal dysfunction leading to an FSGS phenotype, characterized by increased levels of urinary protein and albumin excretion. [Schenk et al., “The pathogenesis of DOCA-salt hypertension,” J. Pharmacol. Toxicol. Methods (May 1992) 27 (3):161-170; Gomez-Sanchez et al., “Mineralocorticoids, salt and high blood pressure,” Steroids (1996) 61:184-188.]
Six to seven weeks old Sprague Dawley rats were unilaterally nephrectomized; after one-week recovery, rats were implanted with a DOCA pellet (45 mg) and provided tap water containing 0.9% NaCl and 0.2% KCl (Day 1) for a 4 weeks treatment. On Day 1, DOCA-salt rats received one daily dose of Compound 1 administered by oral gavage at 3 mg/kg or 10 mg/kg for 4 weeks; control animals for DOCA treatment were administered vehicle. Sham animals, implanted with a silicone-water pellet, were given tap water and received oral administration of the vehicle. Body weight was recorded daily and proteinuria, albuminuria and arterial blood pressure were recorded every week.

[4] = system: Rac1 protein in the urine; assay: Urinary Rac1 analysis in naive rats following treatment with Compound 1; assay type: in vivo, Sprague Dawley rats; settings: 10 mg/kg oral gavage once daily for 7 days
Description: The aim of this study was to measure the amount of Rac1 protein in the urine of healthy rats treated with Compound 1.
Six to seven weeks old Sprague Dawley rats were placed in metabolic cage housing for urine collection. Following two 24-hour periods of pre-dose urine collection, received one daily dose of Compound 1 administered by oral gavage at 10 mg/kg for 7 days; control animals were administered vehicle. Urine was collected for 24-hour periods beginning on the day of dosing inception and on days 3 and 6 of dosing.
Urine samples were concentrated as follows: 20 mL of urine was spun at 1500×g for 5 min to remove cell debris. Samples were concentrated using a Pierce protein concentrator with 10 kDa MWCO (Cat# 88516, Thermo Scientific, USA) and spun at 6000×g for 30 min at 4° C. using rotor JA 14.50 (Beckman Coulter, USA) in an AVANTI-JE centrifuge, (Beckman Coulter). A second centrifugation at 6000×g for 30 min at 4° C. was performed for samples that were concentrated to a volume that was >1 mL, to achieve a volume of <1 mL for all samples. The concentrated urine was collected and stored in −80° C. Next, the samples were analyzed for urinary Rac1 by ELISA (Cat# abx253084, Abbexa Ltd, UK) and urinary creatinine by ELISA (Cat# ab65340, Abcam, USA) following standard procedures according to the manufacturer's instructions. […]

[5] = system: Rac1 protein in the urine; assay: Urinary Rac1 analysis in DOCA-salt hypertensive rats following treatment with Compound 1; assay type: in vivo, Sprague Dawley rats
Text: The aim of this study was to measure the amount of Rac1 protein in the urine of DOCA-salt hypertensive rats treated with Compound 1.
as §1
Six to seven weeks old Sprague Dawley rats were unilaterally nephrectomized. After one-week recovery, rats were implanted with a DOCA pellet (45 mg) and provided tap water containing 0.9% NaCl and 0.2% KCl (Day 1) for a 4 weeks treatment. […] Body weight was recorded daily throughout the study. […] Urine was collected for 24-hour periods beginning on day 17, day 20, day 24 and day 27, and urine protein and albumin were measured using standard methods.
For Rac1 analysis, urine samples were concentrated as follows: 20 mL of urine was spun at 1500×g for 5 min to remove cell debris. […] Next, the samples were analyzed for urinary Rac1 by ELISA (Cat# abx253084, Abbexa Ltd, UK) and urinary creatinine by ELISA (Cat# ab65340, Abcam, USA) following standard procedures according to the manufacturer's instructions. […]

[6] = system: Rac1 protein in the urine; assay: Urinary Rac1 analysis in healthy human subjects following treatment with Compound 1 (Phase 1, NCT03970122); assay type: in vivo
Description: The aim of this study was to measure the amount of Rac1 protein in the urine of healthy human subjects treated with Compound 1.
Healthy human subjects enrolled in a Phase 1 clinical study, “A First-In-Human, Phase 1, Placebo-Controlled Study to Evaluate the Safety, Tolerability, and Pharmacokinetics of Compound 1, a TRPC5 Channel Inhibitor, in Healthy Subjects and Subjects With Renal Impairment,” (NCT03970122) were administered a single, oral dose of either a placebo or 20 mg Compound 1 as a tablet. A urine sample was collected prior to administration of drug, and urine pools were then collected from 0-4 hours, 4-8 hours, 8-12 hours, 12-24 hours, 24-48 hours and 48-72 hours after dosing.
For Rac1 analysis, urine samples were concentrated as follows: 20 mL of urine was spun at 1500×g for 5 min to remove cell debris. Samples were concentrated using a Pierce protein concentrator with 10 kDa MWCO (Cat# 88516, Thermo Scientific, USA) and spun at 6000×g for 30 min at 4° C. using rotor JA 14.50 (Beckman Coulter, USA) in an AVANTI-JE centrifuge, (Beckman Coulter). A second centrifugation at 6000×g for 30 min at 4° C. was performed for samples that were concentrated to a volume that was >1 mL, to achieve a volume of <1 mL for all samples. The concentrated urine was collected and stored in −80° C. Next, the samples were analyzed for urinary Rac1 by ELISA (Cat# abx253084, Abbexa Ltd, UK) and urinary creatinine by ELISA (Cat# ab65340, Abcam, USA) following standard procedures according to the manufacturer's instructions. The amount of Rac1 in the urine was normalized to the amount of creatinine in the urine to control for the volume of urine produced.
Additional data was obtained from human subjects that were administered a single, oral dose of either a placebo, 5 mg of Compound 1 as a liquid suspension or 20, 40 or 80 mg of Compound 1 as tablets. A urine sample was collected prior to administration of drug, and urine pools were then collected from 0-4 hours, 4-8 hours, 8-12 hours, 12-24 hours, and for each 24 hour period from day 2 through day 7 after dosing. Each dose level comprised 2 placebo and 8 treated subjects.

ZDSD rats = assay: ZDSD model of diabetic nephropathy, albuminuria; assay type: in vivo, rat
Text: The aim of this study was to evaluate the effects of the TRCPS inhibitor, Compound 1, to attenuate the development and/or progression of albuminuria in ZDSD model of diabetic nephropathy (DN).
The ZDSD model is an established model which recapitulates the major features of diabetes including impaired glucose metabolism, neuropathy, retinopathy and nephropathy [Peterson et al., “Characterization of the ZDSD Rat: A Translational Model for the Study of Metabolic Syndrome and Type 2 Diabetes,” J. Diabetes. Res. (2015), Article ID 487816, 10 pages; Peterson et aL, “The ZDSD rat: a novel model of diabetic nephropathy,” Am. J. Transl. Res. (2017) 9: 4236-4249].
Male ZDSD rats (Crown Bioscience, Indianapolis, IN., n=79) were maintained on standard rodent chow (Purina 5008) from weaning to 15 weeks of age. A diabetogenic diet (Research Diet D124668) was initiated and maintained for three weeks to synchronize development of hyperglycemia. Diabetogenic diet was replaced with Purina 5008 for remainder of the study. Animals were housed two per cage and maintained on a 12 hour light cycle (0600-1800). Room temperature was monitored daily and maintained at 70-74° F. Food and water were provided ad libitum for duration of the study. […]
Body weight was recorded weekly. Food consumption was recorded weekly during the treatment phase from week 0 through 12. […]

COL4A4 knockout mice = assay: Effects of Compound 1 in COL4A4 knockout mice (Alport model); assay type: in vivo, mouse; settings: 3 mg/kg or 10 mg/kg oral gavage once daily for 4 weeks, FIG. 8
Text: The aim of this study was to evaluate the effects of the TRCPS inhibitor, Compound 1, to attenuate the development and/or progression of albuminuria in […] knockout mice.
The COL4A4 knockout mouse model is a well-established model of Alport disease, characterized by increased levels of urinary protein and albumin excretion. [Korstanje et al., “A mouse Col4a4 mutation causing Alport glomerulosclerosis with abnormal collagen α3α4α5(IV) trimers,” Kidney Int. (2014) 85:1461-1468].
Four to five weeks old COL4A4 knockout mice were received one daily dose of Compound 1 administered by oral gavage at 3 mg/kg or 10 mg/kg for 4 weeks; control animals were administered vehicle. Body weight was recorded daily and urinary protein and creatinine were recorded every week, and the ratio of urine protein to creatinine (UPCR) was calculated.

C=CC[C@@H]1/C=C(\C)C[C@H](C)C[C@H](OC)[C@H]2O[C@@](O)(C(=O)C(=O)N3CCCC[C@H]3C(=O)O[C@H](/C(C)=C/[C@@H]3CC[C@@H](O)[C@H](OC)C3)[C@H](C)[C@@H](O)CC1=O)[C@H](C)C[C@@H]2OC [tacrolimus, Tacrolimus]
body weight ([1]; DOCA and tacrolimus 0.3 mg/kg oral gavage daily, first two weeks): significant loss of body weight | urinary albumin excretion ([1]; tacrolimus 0.3/0.1 oral daily, weeks 2 and 3 vs DOCA-vehicle (p<0.05), FIG. 12): significantly attenuated urinary albumin excretion | body weight after dose adjustment ([1]; tacrolimus dose adjusted from 0.3 mg/kg down to 0.1 mg/kg after two weeks of dosing): reversed the weight loss

COC(=O)[C@@H]1CC2=CC(=O)CC[C@]2(C)[C@@]23O[C@@H]2C[C@@]2(C)[C@@H](CC[C@@]24CCC(=O)O4)[C@H]13 [eplerenone]
body weight ([2]; DOCA vs DOCA plus Compound 3 (30 mg/kg oral daily) or eplerenone (50 mg/kg oral twice daily)): no significant difference | urinary albumin excretion ([2]; eplerenone 50 mg/kg twice-daily oral gavage, week 4 vs DOCA-vehicle (p<0.05), FIG. 10): significantly attenuated urinary albumin excretion

O=c1[nH]ncc(N2CCc3c(ncnc3Oc3ccc(F)cc3C(F)(F)F)C2)c1Cl [Compound 1]
urinary albumin excretion ([3]; 3 mg/kg oral daily, significant at week 3 vs DOCA-vehicle (p<0.05)): attenuated urinary albumin excretion | urinary albumin excretion ([3]; 10 mg/kg oral daily, vs DOCA-vehicle, p<0.05 week 2, p<0.001 weeks 3 and 4): attenuated urinary albumin excretion | body weight ([3]; DOCA vs DOCA and Compound 1, 3 or 10 mg/kg oral daily 4 weeks): no significant difference | adverse effects ([3]; DOCA-salt rats, 3 or 10 mg/kg oral gavage once daily for 4 weeks): No adverse effects were observed | adverse effects [4]: No adverse effects were observed | urinary Rac1 levels (Rac1 normalized to creatinine) ([4]; vs pre-dose levels, significance at day 4 (p<0.01), FIG. 2): reduced urinary Rac1 levels | adverse effects ([5]; 10 mg/kg oral gavage once daily for 7 days from day 21): No adverse effects were observed | urinary Rac1 levels (Rac1 normalized to creatinine) ([5]; 10 mg/kg oral gavage once daily for 7 days from day 21, vs pre-dose levels, significance day 25 (p<0.01), FIG. 3): reduced urinary Rac1 levels | urinary Rac1 levels (Rac1 normalized to creatinine) ([6]; healthy humans, single oral 20 mg tablet, vs pre-dose, significance by 8-12 hours after dosing (p<0.05), FIG. 4): reduced urinary Rac1 levels | time urinary Rac1 levels remained reduced ([6]; humans, single 40 mg oral dose): up to 4 days | time urinary Rac1 levels remained reduced ([6]; humans, single 80 mg oral dose): at least 7 days | urinary Rac1 levels ([6]; humans, single oral dose 5 mg suspension or 20, 40, 80 mg tablets, significance by 8-12 hours with 40 mg and 80 mg doses vs pre-dose (p<0.05), FIG. 4B): reduced urinary Rac1 levels | body weight (ZDSD rats; 3 mg/kg and 10 mg/kg oral gavage daily for 12 weeks, vs vehicle group, last two weeks of study): increase in body weight | urinary albumin excretion (ZDSD rats; 3 or 10 mg/kg/d oral gavage 12 weeks, week 6 to week 12, significance at weeks 10 to 12 vs vehicle (p<0.001), FIG. 6): attenuated urinary albumin excretion | urinary protein to creatinine ratio (UPCR) (COL4A4 knockout mice): no effect
